In the supplement of paper PMC9938120:

Columns and labels:
Experiment in all cases: drug sensitivity score (DSS3, normalised partial AUC of % inhibition dose-response) (DSS (score)); higher = more sensitive (stronger inhibition of viability); extreme values may be limits of the assay
[1] = test system: FMOC09 (patient-derived high-grade serous ovarian cancer cells); conditions: 72 h; library: FO5A; assay format: 2D, 384-well, CellTiter-Glo
Method in brief: (§1)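 The drug sensitivity score is calculated as a partial area under the percent-inhibition dose-response curve, divided by the log of the upper asymptote; higher scores mean more sensitive. For this score, early-passage (under 10) patient-derived ovarian cancer cells were exposed on 384-well flat clear-bottom plates to compounds at five concentrations across a 10,000-fold range for 72 h at 37 °C, 5% CO2. Viability was read with CellTiter-Glo and processed in Breeze.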

[2] = test system: FMOC14 (patient-derived high-grade serous ovarian cancer cells); conditions: 72 h; library: FO5A; assay format: 2D, 384-well, CellTiter-Glo
Method in brief: as §1

[3] = test system: FMOC11 (patient-derived high-grade serous ovarian cancer cells); conditions: 72 h; library: FO5A; assay format: 2D, 384-well, CellTiter-Glo
Method in brief: as §1

[4] = test system: FMOC27 (patient-derived low-grade serous ovarian cancer cells); conditions: 72 h; library: FO5A; assay format: 2D, 384-well, CellTiter-Glo
Method in brief: as §1

[5] = test system: FMOC02_3 (patient-derived low-grade serous ovarian cancer cells); conditions: 72 h; library: FO5A; assay format: 2D, 384-well, CellTiter-Glo
Method in brief: as §1

[6] = test system: FMOC22 (patient-derived mucinous ovarian cancer cells); conditions: 72 h; library: FO5A; assay format: 2D, 384-well, CellTiter-Glo
Method in brief: as §1

[7] = test system: FMOC04 (patient-derived high-grade serous ovarian cancer cells); conditions: 72 h; library: FO5A; assay format: 2D, 384-well, CellTiter-Glo
Method in brief: as §1

[8] = test system: FMOC02_2 (patient-derived low-grade serous ovarian cancer cells); conditions: 72 h; library: FO5A; assay format: 2D, 384-well, CellTiter-Glo
Method in brief: as §1

[9] = test system: FMOC03 (patient-derived mucinous ovarian cancer cells); conditions: 72 h; library: FO5A; assay format: 2D, 384-well, CellTiter-Glo
Method in brief: as §1

[10] = test system: FMOC24 (patient-derived high-grade serous ovarian cancer cells); conditions: 72 h; library: FO5A; assay format: 2D, 384-well, CellTiter-Glo
Method in brief: as §1

[11] = test system: FMOC06 (patient-derived mucinous ovarian cancer cells); conditions: 72 h; library: FO5A; assay format: 2D, 384-well, CellTiter-Glo
Method in brief: as §1

[12] = test system: FMOC25_2 (patient-derived low-grade serous ovarian cancer cells); conditions: 72 h; library: FO5A; assay format: 2D, 384-well, CellTiter-Glo
Method in brief: as §1

[13] = test system: FMOC25_1 (patient-derived low-grade serous ovarian cancer cells); conditions: 72 h; library: FO4B; assay format: 2D, 384-well, CellTiter-Glo
Method in brief: as §1

[14] = test system: FMOC28 (patient-derived low-grade serous ovarian cancer cells); conditions: 72 h; library: FO5A; assay format: 2D, 384-well, CellTiter-Glo
Method in brief: as §1

[15] = test system: FMOC17 (patient-derived low-grade serous ovarian cancer cells); conditions: 72 h; library: FO5A; assay format: 2D, 384-well, CellTiter-Glo
Method in brief: as §1

[16] = test system: FMOC02_1 (patient-derived low-grade serous ovarian cancer cells); conditions: 72 h; library: FO5A; assay format: 2D, 384-well, CellTiter-Glo
Method in brief: as §1

SMILES	drug sensitivity score [1]	drug sensitivity score [2]	drug sensitivity score [3]	drug sensitivity score [4]	drug sensitivity score [5]	drug sensitivity score [6]	drug sensitivity score [7]	drug sensitivity score [8]	drug sensitivity score [9]	drug sensitivity score [10]	drug sensitivity score [11]	drug sensitivity score [12]	drug sensitivity score [13]	drug sensitivity score [14]	drug sensitivity score [15]	drug sensitivity score [16]
O=C(c1ccc(OCCN2CCCCC2)cc1)c1c(-c2ccc(O)cc2)sc2cc(O)ccc12 [Raloxifene]	0.7	2.6	2.9	0.2	4.5	1.2	1.95	5.8	0.7	8.45	4.5	3.7	1.7	0	1.8	5.5
Cc1nc(NC(=O)N2CCC[C@H]2C(N)=O)sc1-c1ccnc(C(C)(C)C(F)(F)F)c1 [Alpelisib]	4.3	0	1.4	0.2	6.5	0.7	0.9	5.7	2.3	0.35	4.1	4.8	4.7	5.9	1.9	5.3
CS(=O)(=O)CCNCc1ccc(-c2ccc3ncnc(Nc4ccc(OCc5cccc(F)c5)c(Cl)c4)c3c2)o1 [Lapatinib]	2.9	0.5	3.3	4.3	4.6	0	0	6.9	5.3	0.05	1	3.7	3.6	4	3	5.4
CCCCNc1ncc(C(=O)NCc2ccc(-n3ccnc3)cc2)c(NC2CCC(O)CC2)n1 (stereo not drawn) [UNC2881]	0	0	0	0	2.5	0.4	0	2.2	0.2	0.4	0	1.8	0	1.5	1.3	1.4
N#Cc1ccc2[nH]c(O)c(-c3ccc(CN4CCOCC4)cn3)c2c1 [AZD-1080]	0	0	0	0	5.1	0	0.15	0	0	1.15	0	5.3	0	0	0.4	1.4
CC(C)C[C@H](NC(=O)[C@@H](COC(C)(C)C)NC(=O)[C@H](Cc1ccc(O)cc1)NC(=O)[C@H](CO)NC(=O)[C@H](Cc1c[nH]c2ccccc12)NC(=O)[C@H](Cc1cnc[nH]1)NC(=O)[C@@H]1CCC(=O)N1)C(=O)N[C@@H](CCCNC(=N)N)C(=O)N1CCC[C@H]1C(=O)NNC(N)=O [Goserelin]	0	0	0	0	0	0	0	0	0	0	0	0	0	0	0	0
O=S(=O)(c1cccc2c(O)nccc12)N1CCCNCC1 [Hydroxyfasudil]	0	0	0	0	0	0	0	0	0	1.25	0	0	0	0	0	0
O=C(O)CNC(=O)c1c(O)c2ccccc2n(Cc2ccccc2)c1=O [IOX-2]	0	0	0	0	0	0	0	0.5	0	1.75	0	0.9	0	3.2	0	0.5
O=C(Nc1cccnc1)N1CCC(Cc2cccc(Oc3ccc(C(F)(F)F)cn3)c2)CC1 [PF-3845]	0	0	0	1.9	1.2	1.5	0	3.3	2.3	0.4	0.1	0	1.7	2.5	1.6	1.1
C[C@@H](Nc1cc(F)cc(F)c1)c1cc(C(=O)N(C)C)cc2c(=O)cc(N3CCOCC3)oc12 [AZD-8186]	2.4	0	1.8	5.3	3.3	0	0.75	2.6	1.6	0	3	2.1	1.5	1.6	4.9	1.5
COc1cc2/c(=N/c3ccc(Br)cc3F)nc[nH]c2cc1OCC1CCN(C)CC1 [Vandetanib]	3.1	0.1	3.1	4.8	5.1	0	0.55	6.3	2.7	1.7	0.7	4.1	1.4	2.1	6.2	5.6
O=C(O)CC1CC(c2ccccc2)=NO1 (stereo not drawn) [VGX-1027]	0	0	0	0	0	0	0	0	0	0	0	0	0	0	0	0
C[C@H](Nc1ncnc2nc[nH]c12)c1cc2cccc(Cl)c2c(=O)n1-c1ccccc1 [Duvelisib]	0	0	0.7	0.1	0	0	0	0.1	0	0.65	1	0	0	0	0.5	0
CNC(=O)c1ccccc1Sc1ccc2c(/C=C/c3ccccn3)n[nH]c2c1 [Axitinib]	0	0	0.1	0	0.1	1.2	0.45	0.5	2.1	2.15	0	0	0	0	0.3	1.9
Cc1cc(C)c(CNC(=O)c2cc(-c3ccc(CN4CCOCC4)cc3)cc3c2cnn3C2CCCC2)c(=O)[nH]1 [EPZ-5687]	0	0	0	3.1	1.5	0.6	0.05	0.9	0.6	1.7	0	1.8	0	5.1	0.1	0.4
N#CC(c1ccnc(OCc2ccc(CN3CCOCC3)cc2)n1)c1nc2ccccc2s1 (stereo not drawn) [Bentamapimod]	2.9	2.3	3.2	0	1.7	2	0.4	0.9	2.8	5.8	2	1	0.7	3.8	4.2	1.1
O=C(O)c1ccc(O)c2ncccc12 [IOX-1]	0	1.9	1.6	0	0	1.6	0	0.2	3	0	1	0	0	0	0	0
CNC(=O)c1cccc2cc(Oc3ccnc4cc(OCC5(N)CC5)c(OC)cc34)ccc12 [Lucitanib]	1.2	0	1.1	1.4	1.7	0.2	0.4	0.4	0.1	1.45	0.3	1.4	0.3	4.1	0.2	2.6
O=C(O)c1ccc(CN2CCC(CN[C@@H]3C[C@H]3c3ccccc3)CC2)cc1	0	0	0	0	1.6	0	0.4	0	0	0.9	0	0	0	0	0	0.4
CC(C)(C)NC(=O)[C@H]1CC[C@H]2[C@@H]3CC[C@H]4NC(=O)C=C[C@]4(C)[C@H]3CC[C@]12C [Finasteride]	0	0	0	0	0	0	0	0	0	1.1	0	0	0	0	0	0
O=C(O)CCCCC(CCSCc1ccccc1)SCc1ccccc1 (stereo not drawn) [CPI-613]	0	0	0	0	0	0	0	0	0	0	0	0	0	2.8	2.5	0
COc1cc2nccc(Oc3ccc(NC(=O)C4(C(=O)Nc5ccc(F)cc5)CC4)cc3)c2cc1OC [Cabozantinib]	0	0	0	0.8	0	0	0	0.1	0	4.45	0	0	0	0	0	1
C=CCc1cccc(/C=N/NC(=O)CN2CCN(Cc3ccccc3)CC2)c1O [PAC-1]	4.8	5	3.1	0	0	3.5	0	3.6	5.6	1.2	3.7	2.1	0.4	7.1	1.3	0
